Test results reported in patent publication US7279497B2, “Benzopyran derivatives substituted with secondary amines including imidazole, their preparation and pharmaceutical compositions containing them” (Korea Research Institute of Chemical Technology, priority 2002, dated 2007).

Assays:
[1] = test system: isolated rat hearts; assay: Cardioprotective activity in isolated ischemic rat heart (Langendorff); settings: 10 μM
Protocol: In order to determine whether the compounds of the chemical formula 1 are protective for ischemic hearts in vitro, experiments determining the anti-ischemic effects of the compounds on isolated rat hearts were conducted as follows.
For all in vitro studies, isolated rat hearts were used according to the published methods after some modification [HJ Ring, Arzneim.-Forsch./Drug Res. 39 (II), 1535 (1989): T. Krzeminski, et al., J. Pharmacological Methods, 25, 95, (1991)]
Male Sprague-Dawley rats weighing 300-450 g were anesthetized with sodium pentobarbital (100 mg/kg, i.p.). The tail vein was injected with heparin (1,000 U/kg) and then the trachea was intubated. While rats were mechanically ventilated with a rodent ventilator (Model 7025, Ugobasile, Italy), their hearts were perfused in situ with oxygenated modified Krebs-Henseleit bicarbonate buffer (described herein) by retrograde aortic cannulation. The hearts were then excised and moved to a Langendorff apparatus (H.S.E., Germany), where they were perfused with oxygenated modified Krebs-Henseleit bicarbonate buffer containing (in mM) NaCl 116, NaHCO3 24.9, KCl 4.7, MgSO4 1.1, KH2PO4 1.17, CaCl2 2.52, glucose 8.32 and pyruvate 2.0 at a constant perfusion pressure (85 mm Hg). A latex balloon filled with solvent (ethanol:water=1:1 (v/v)) and attached to a metal cannula was placed in the left ventricle through pulmonary vein and connected to a Isotec pressure transducer (H.S.E., Germany) for measurement of left ventricular pressure (LVP). The hearts were allowed to equilibrate for 15 min, at which time left ventricular end-diastolic pressure (EDP) was adjusted to 5 mm Hg and this balloon volume was maintained throughout the experiment. Then, baseline contractile function, heart rate (HR), and coronary flow (CF) (extracorporeal electromagnetic flow probe, Narco Bio-System, U.S.A.) were measured. Cardiac contractile function was calculated by subtracting LVEDP from LV peak systolic pressure (LVSP), yielding developed pressure (LVDP). Double product (DP), another important parameter for assessing cardiac performance, was calculated by multiplying HR by LVDP. Throughout the experiment, all these parameters were measured, and calculated before and 10 min after pretreatment with each compound and 30 min after the onset of reperfusion with buffer. Data on reperfusion DP were further expressed as the percentage to pretreatment DP.
After stabilization for 15 min, the hearts were pretreated for 10 min with respective drugs (10 μM, 0.04% DMSO) or vehicle (0.04% DMSO) before onset of global ischemia; test agents were administered directly into the oxygenator of the Langendorff apparatus immediately above the aortic root in a retrograde fashion as solutions in the perfusate. We then rendered the hearts globally ischemic by completely shutting off the perfusate for 30 min. Severity of ischemia was determined as the time to contracture (TTC, min) during global ischemia in which the first 5 mmHg increase in EDP was observed. Then, the hearts were reperfused and, 30 min later, contractile function (LVDP, DP) and cumulative reperfusion lactate dehydrogenase (LDH) release were measured. LDH was measured as a sensitive index for loss of cell viability with a kit supplied by Boerhinger Mannheim based on the technique of Wroblewski and LaDue [F. Wroblewski and J S. La Due, Proc Soc Exp Biol Med 90, 210, (1955)].

[2] = test system: isolated rat aorta; assay: Vasorelaxation effects on isolated blood vessels (methoxamine induced vasoconstriction); settings: rat aorta constricted with methoxamine (3 μM)
Protocol: The following experiment was conducted to examine whether the compounds of the formula 1 have vasorelaxation effects.
Male Sprague-Dawly rats (350-450 g, obtained from the Experimental Animal Team of the Korea Research Institute of Chemical Technology) were knocked unconscious by hitting the occipital region, sacrificed by cervical dislocation, and underwent thoracotomy. After being quickly removed, the thoracic aorta was deprived of the adipose tissue and cut into aortic rings of 3 mm width. The aorta was lightly rubbed with a modified Krebs Henseleit buffer (Physiological Salt Solution, PSS) soaked cotton club to remove the inner epithelial layer therefrom. While being suspended in an organ bath containing a physiological buffer, the vascular tissue was allowed to equilibrate under a resting tension of 2 g and then, stand for 1 hour at 37° C. for stabilization with a supply of a carbogen consisting of 95% O2-5% CO2.
Thereafter, the vascular tissue was constricted with 10^−5 M phenylephrine and washed several times with PSS and this procedure was repeated again to ensure the stable reactivity of vascular smooth muscle to repetitive constriction/dilatation.
In addition, 3×10^−6 M methoxamine was used to induce an intensive constriction in the vascular smooth muscle. When the vasoconstriction induced by the methoxamine reached and maintained a maximum, test compounds and controls were cumulatively added to the organ baths in concentrations of 1, 3, 10 and 30 μM so as to induce vasodilatation. Cromakalim, BMS-180448, and BMS-191095 were used as the controls.
Following the addition of test compounds, the change in the maximal constriction induced by methoxamine was calculated to plot a concentration-relaxation response curve. Through a linear regression analysis, IC50, the drug concentration at which the vascular tissue is 50% dilated, was obtained for each compound.

[3] = test system: ischemic hearts; assay: Cardioprotective activity in ischemic heart model of anesthetized rats; settings: Rat in vivo, 0.3 mg/kg i.v.
Protocol: In order to determine whether the compounds of formula 1 are protective for ischemic hearts, experiments determining the anti-ischemic effects of the compounds on rats were conducted as follows. Male rats (350-450 g, obtained from the Experimental Animal Team of the Korea Research Institute of Chemical Technology) were anesthetized by the intraperitoneal injection of pentobarbital at a dose of 75 mg/kg. After trachetomy, the rats were rendered to respire artificially at a rate of 60/min with a stroke volume of 10 ml/kg. Cannulars were inserted into the fermoral vein and the fermoral artery and used for drug administration and blood pressure measurement, respectively. In the ischemic myocardial injury models, the body temperature has an important influence on the results. To avoid the change in the body temperature, a body temperature measuring probe was inserted into the rectum of each rat and the body temperature was constantly kept at 37° C. with the aid of a homeothermic blanket control unit. Afterwards, during testing, a continuous measurement was made of the mean arterial blood pressures and heart rates from the rats. For the measurement of the blood pressure, a pressure transducer (Statham P23XL, Grass Ins., MA, U.S.A.) was used. The heart rate was measured by a tachometer (ECG/RATE Coupler, Hugo Sachs Electronic, German) identified as Biotachometer. In addition, all of the changes occurring were continuously recorded through the Gould 2000 chart recorder ([…] Linearcorder W R 3310, Hugo Sachs Electronic). The left coronary artery was occluded according to the Selye H. method as follows. The rats underwent a left thoracotomy operation for partial opening of the chest and the right-side chest was pressurized by the middle finger of the left hand to push the heart out. Immediately after the left anterior descending coronary artery hereinafter referred to as (LAD) was carefully stitched using a suture needle with 5-0 silk ligature, the heart was then repositioned in the thoracic cavity while both ends of the ligature were situated outside. The opposite ligature ends were passed through a PE tube (PE100, 2.5 cm) and allowed to stand loose for 20 min for stabilization. Via the cannula inserted into the femoral vein, vehicles or drugs were administered into the rats which were rendered to stand for 30 min in order to sufficiently elicit the efficacies of the drugs. […] From the images input into the computer, the area of the normal blood stream tissue region which appeared blue in a computer monitor and the area which appeared colorless were measured. The percentage of the colorless area to the total area of each slice was calculated and multiplied by the weight of each slice to determine the area at risk (AAR) of each slice. […]

[4] = test system: cerebral cortical neurons; assay: Protective activity against iron-induced neuronal damage (LDH release); format: cell-based; settings: Rattus norvegicus, Cortical neurone, FeSO4 50 μM, 24 hours
Protocol: In order to examine whether the compounds of the formula 1 suppress the iron-induced neuronal damage and death, experiments were conducted as follows.
From the brains of 17-18 day-old rat embryos, cerebral cortical neurons were isolated and then, cultured at 37° C. for 7-9 days in a 5% CO2 incubator. The cortical cell cultures were washed twice with a minimum essential medium (MEM) to reduce the serum concentration to 0.2% and pre-treated with test compounds at 30, 7.5, 1.875, and 0.469 μM of final concentrations, each for 30 min. The test compounds were dissolved in DMSO and diluted in a medium. At this time, the final concentration of DMSO was not allowed to exceed 0.2%. For a control group, only vehicle was applied.
After the pre-treatment with test compounds or vehicle, FeSO4 was added to a final concentration of 50 μM, and the cultures were maintained for 24 hours in a CO2 incubator. During incubation, lactate dehydrogenase (LDH) was released into the medium upon neuronal death by the oxidative toxicity of iron. The extent of neuronal damage was assessed by measuring the amount of LDH released into the media. The protective effect of the compounds of interest on neurons was evaluated by calculating the reduction rate of released LDH of treated group compared with that of the control group, and IC50 was calculated as the least linear regression analysis of dose-response curve.

[5] = test system: HUVECs (Human umbilical vein endothelial cells); assay: Inhibitory effects on HUVEC tube formation; format: cell-based;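 on tube formation: from minus no inhibition up to plus-plus-plus complete inhibition versus vehicle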
Protocol: The Inhibitory effects of the compounds of the formula 1 on angiogenesis were meassured by the vascular tube formation assay of HUVECs (Human umbilical vein endothelial cells), which is one of the major angiogenic steps.
HUVECs were isolated from human umbilical vein, and cultured. HUVECs within passage 5 from confluent cultures were detached, and plated onto a layer of a bFGF (basic fibroblast growth factor)-reduced and polymerized Matrigel. Matrigel cultures were incubated with or without the compounds of formula 1, and the changes of cell morphology were captured through a phase contrast microscope and photographed.

[6] = test system: SPF SD rats; settings: rat, in vivo, po;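 further: Six-week-old animals, two per group, followed across an observation period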
[7] = test system: rat brain homogenate; assay: Inhibitory activity against iron-induced lipid peroxidation (MDA); format: biochemical; settings: 30 μM, FeCl2 400 μm
Protocol: In order to examine whether the compounds of the formula 1 suppress the iron-induced lipid peroxidation, experiments were conducted as follows.
The rat brain was homogenized in a Krebs buffer (15 mM HEPES, 10 mM glucose, 140 mM NaCl, 3.6 mM KCl, 1.5 mM CaCl2, 1.4 mM KH2PO4, 0.7 mM MgCl2, pH 7.4) and the supernatant separated by centrifugation at 12,000 rpm for 10 min was used for further experiments. FeCl2 was added to a final concentration of 400 μm in the brain homogenate which was then allowed to stand at 37° C. for 30 min. for the facilitation of oxidation. Each of the test compounds was added at a concentration of 30 μM and vehicle was used as a control.
Iron facilitates the oxidation of the brain homogenate to produce malondialdehyde (MDA), a lipid peroxidation product. Thus, the lipid peroxidation was determined by MDA quantification. The inhibitory effect of the test compounds against the lipid peroxidation was evaluated by calculating MDA reduction rate of the test compounds compared with that of the control group.
Typically, the MDA quantification is achieved by reacting samples with 2-thiobarbituric acid (TBA) and measuring the absorbance at 530 nm. However, this method is unsuitable to treat samples on a large scale because of a boiling step. Thus, in this experiment, N-methyl-2-phenylindole was used instead of TBA. […] Bioxytech^R LPO-586 Kit was used for MDA quantification.

| Structure (SMILES) | LDVP × HR (%) ([1]; 30 min reperfusion, % of pretreatment DP) | TTC (time to contracture) ([1]; global ischemia) | EDP ([1]; reperfusion) | LDH (reperfusion release) ([1]; reperfusion) | IC50 [2] | AAR/LV (%) [3] | IZ/AAR (%) [3] | inhibition at 30 µM ([4]; 30 μM, read-out: Neuroprotection inhibition % (LDH release)) | IC50 ([4]; read-out: Neuroprotection IC50) | inhibitory effect on HUVEC tube formation ([5]; 10 uM) | Tube formation ([5]; 10 μM) | inhibitory effect on HUVEC tube formation ([5]; 100 uM) | Tube formation ([5]; 100 μM) | clinical symptoms, body weight and mortality [6] | % Inhibition of lipid peroxidation by iron [7] |
| --- | --- | --- | --- | --- | --- | --- | --- | --- | --- | --- | --- | --- | --- | --- | --- |
| CC1(C)Oc2ccc(C#N)cc2[C@@H](N=C(NC#N)Nc2ccc(Cl)cc2)[C@@H]1O [BMS-180448, reference compound] | 67.6% | 27.8 min | 16.5 MmHg | 17.2 U/g | 1.38 µM | 38.8% | 39.1% | – | – | – | – | – | – | – | – |
| COC(OC)[C@@]1(C)Oc2ccc([N+](=O)[O-])cc2[C@H](N(Cc2ncc[nH]2)c2ccc(Cl)cc2)[C@H]1O [Example 2, (2S,3R,4S)-3,4-dihydro-2-dimethoxymethyl-3-hydroxy-2-methyl-6-nitro-4-[N-(4-chlorophenyl)-N-(1H-imidazol-2-ylmethyl)amino]-2H-1-benzopyran] | – | – | – | – | – | – | – | 92% | 6.2 µM | strong inhibition | ++ | complete inhibition | +++ | no significant changes | – |
| COC(OC)[C@@]1(C)Oc2ccc(N)cc2[C@@H](N(Cc2ncc[nH]2)c2ccc(Cl)cc2)[C@@H]1O [Example 24, (2S,3S,4R)-6-amino-3,4-dihydro-2-dimethoxymethyl-3-hydroxy-2-methyl-4-[N-(4-chlorophenyl)-N-(1H-imidazol-2-ylmethyl)amino]-2H-1-benzopyran] | – | – | – | – | – | – | – | – | – | – | + | – | + | no significant changes | 83% |
